Values quoted from earlier work as cited in US20020194154A1, “Systems, methods and computer program products for integrating biological/chemical databases using aliases” (priority 2001, published 2002).

Conditions: side effect; text mining of HSDB

In the case of `CC(C)(C)NCC(O)c1cc(Cl)c(N)c(Cl)c1` (centres unmarked) [clenbuterol], the cardiac arrhythmia is given as “can in some cases cause cardiac arrhythmia” and the heart rate is given as “increases heart rate”.
